# Laboratory results taken from US11344607B2, “Treatment of disease with relaxin” (BV Biomed Ltd, priority 2015, dated 2022).
# Several values for one entry are separate records, joined by “and”; a condition that tells them apart may be missing. Equal values may be shown once. Entries after “also recorded” stand apart in the source; their conditions may differ. No end group written: not given here.
# Tests used:
# IL-6 = assay: RT-PCR of spinal cord, IL-6 expression; type: in vivo, mice; conditions: for change of spinal cord IL-6 expression vs placebo: EAE mice, in words
# Protocol: (§1) At 7-8 weeks of age, mice were immunized with […] emulsion (Hooke Laboratories #EK-2110 provided pre-formulated). Mice received pertussis toxin (Hooke Laboratory, Cat #EK-2110 provided lyophilized) reconstituted in phosphate buffered saline (PBS) at the time of immunization (day 0; 75 ng) and on day 2 (200 ng). Animals were scored daily for disease severity: 0=normal, 1=tail paralysis, 2=tail paralysis and strong hind limb weakness, 3=complete hind limb paralysis, 4=hind limb and forelimb paralysis, 5=found dead.
# (§2) At the onset of EAE (the first day with a score of 1 or greater), subcutaneous alzet pumps (DURECT Corporation, Cupertino, Calif.) were inserted and the animals were randomly assigned to receive either porcine relaxin (SKY BioHealth, Inc., Eden Prairie, Minn., […]) or placebo treatment (1 μ/Hr PBS), either recombinant porcine relaxin (pRLN, n=8) or placebo (PBS, n=8) at a rate of 0.110/hr. Relaxin (SKY BioHealth, Inc., Eden Prairie, Minn/) was administered at a concentration of 0.25 mg/ml for the remainder of the study. This delivered a standard dose of 0.66 μg/day of pRLN, which is equivalent to the identified effective dose of 30 μg/KG body weight/day (Hasse et al, 2014). Statistical analysis was done using the t-test and P values <0.05 were considered to be statistically significant.
# (§3) Spinal cords and brains were collected for RT-PCR and histopathology. Total RNA was isolated from spinal cord and brain tissue using the RNeasy mini-kit protocol (Qiagen; Valencia, Calif.) and converted to cDNA using oligo(dT), random hexamers, and Superscript RT II (Invitrogen; Grand Island, N.Y.). […]
# (§4) β-actin. Alternatively RT-PCR for the chemokine receptors (CCR); CCR2, CCR5, CCR7, the interleukins (IL-6 and IL-17) were analyzed using quantitect primers (table 2) and SYBR green based RT-PCR kits (Qiagen, Valencia, Calif.). For histology, spinal cords sections were stained using luxol fast blue-periodic acid shiff for semi-quantitative analysis of infiltration and demyelination.
# neurofilaments = assay: Neurofilament immunohistochemistry of spinal cord; type: in vivo; conditions: EAE mice, vs untreated; listed as RLN
# Protocol: (§5) For alternative histology, spinal cords were formalin fixed and paraffin embedded (FFPE) as described by Canene-Adams [Canene-Adams, 2013]. Briefly, Spinal cords were rinsed in PBS to remove blood and fixed in 10% formalin for 48 hours at room temperature. Tissues were then transferred to 70% ethanol (ETOH) for 1 hour, 95% ETOH (95% ETOH/5% methanol) for 1 hour, then incubated in four absolute ETOH baths first for 1 hour, then 2 for 1½ hours, followed by a fourth for 2 hours. Tissues were then cleared with two xylene baths for 1 hour each. Tissues were then incubated in two paraffin baths at 58° C. for 1 hour each. Tissues were then removed and placed in cassettes.
# (§6) The FFPE tissues were sectioned into […] slices on a microtome. Slices were transferred to glass slides and warmed to 65° C. for 20 minutes to bond the tissue to the glass.
# (§7) Sections were stained with Kiernan's eriochrome cyanin for myelin [Kiernan J A, 1999], cluster of differentiation 68 (CD68) for macrophages [Holness and Simmons, 1993], neurofilaments [Alberts, B. 2002] and glial fibrillary acidic protein (GFAP) [Jacque C M, et al, 1978].
# (§8) Standard immunohistochemistry [Ramos-vara and Miller, 2014] was used to identify the presence of CD68, neurofilaments and GFAP in the FFPE tissues. Essentially the appropriate antibody directed against the antigen of choice was incubated with the tissue and allowed to bind. […]
# [1] = test system: inflammation and Wallerian degeneration of the spinal cord; assay: H&E staining of spinal cord; type: in vivo; conditions: EAE mice, vs untreated
# Protocol: as §5, §6
# Staining with Hematoxylin and eosin (H&E) stain was also carried out according to standard protocols.
# EAE mouse model = assay: EAE disease severity, daily clinical score; type: in vivo, mice
# Protocol: Female C57BL/6 mice were obtained and housed at Biomedical Research Models (Worcester, Mass.)
# as §1, §2
# CCR5 = assay: RT-PCR of spinal cord, CCR5 expression; type: in vivo, mice
# Protocol: as §1
# (§9) At the onset of EAE (the first day with a score of 1 or greater), subcutaneous alzet pumps (DURECT Corporation, Cupertino, Calif.) were inserted and the animals were randomly assigned to receive either porcine relaxin (SKY BioHealth, Inc., Eden Prairie, Minn., 66.0 μg/day) or placebo treatment (1 μ/Hr PBS), either recombinant porcine relaxin (pRLN, n=8) or placebo (PBS, n=8) at a rate of 0.110/hr. […]
# as §4
# GFAP = GFAP immunohistochemistry of spinal cord (gliosis); type: in vivo; conditions: EAE mice, untreated stained positive (extensive gliosis)
# Protocol: as §5, §6, §7, §8
# IL-17 = assay: RT-PCR of spinal cord, IL-17 expression; type: in vivo, mice; conditions: for change of spinal cord IL-17 expression vs placebo: EAE mice, in words
# Protocol: as §1, §2, §3, §4
# IL-10 = assay: RT-PCR of spinal cord, IL-10 expression; type: in vivo; conditions: EAE mice, in words (FIG. 3)
# Protocol: as §1, §2
# (§10) Spinal cords and brains were collected for RT-PCR and histopathology. […]
# CCR7 = assay: RT-PCR of spinal cord, CCR7 expression; type: in vivo, mice
# Protocol: as §1, §9, §4
# CCR2 = assay: RT-PCR of spinal cord, CCR2 expression; type: in vivo, mice
# Protocol: as §1, §9, §4
# myelin = assay: Kiernan's eriochrome cyanin stain of spinal cord for myelin; type: in vivo; conditions: EAE mice, vs untreated (loss of myelin)
# Protocol: as §5, §6, §7
# Kiernan's stain for myelin was done as described. First tissues were placed in a solution containing eriochrome cyanine R, ferric chloride and sulphuric acid in water for 20 minutes. Rinsed briefly under tap water and differentiated with aqueous ferric chloride (5.6%). […]
# MIR2 = assay: Spinal cord expression of MIR2; type: in vivo; conditions: EAE mice, in words (FIG. 3)
# Protocol: as §1, §2, §10
# CD68 = CD68 immunohistochemistry of spinal cord (macrophages); type: in vivo; conditions: EAE mice, vs untreated; listed as RLN
# Protocol: as §5, §6, §7, §8
# [2] = limited clinical trials (Smith 2006); cited from earlier work
# spinal cord lesions = assay: Spinal cord histology, infiltration and demyelination (lesion load); type: in vivo; conditions: EAE mice, compared to control animals, data not shown
# Protocol: as §4
substance,measurement,setting,value
"relaxin: porcine relaxin (SKY BioHealth, Inc.), recombinant porcine relaxin (pRLN), infused by subcutaneous alzet pump (Relaxin B chain QSTNDFIKACGRELVRLWVEICGSVSWGRTAL; Relaxin A chain RMTLSEKCCQVGCIRKDIARLC; ends and bridges not checked; cysteine pairing not given here; UniProt P01348 25-56; P01348 161-182, looked up)",change of spinal cord IL-6 expression vs placebo,IL-6,significantly decreased
same,change of spinal cord IL-6 expression vs placebo,IL-6; listed as RLX,decreased
same,spinal cord expression of IL-6,"IL-6; normalized to β-actin, EAE mice n=8, further studies (FIG. 4), p<0.05 vs placebo 0.0009",0.0004 relative units
same,loss of neurofilament in the spinal cord,neurofilaments,relatively greater loss of neurofilaments compared to mice receiving RLN therapy; also recorded: greater loss of neurofilament in the spinal cords of untreated mice
same,inflammation and Wallerian degeneration of the spinal cord,[1],decrease in inflammation and Wallerian degeneration
same,time to marked improvement in clinical score,"EAE mouse model; EAE mice, after commencing continuous infusion (FIG. 1a)",≤ 3 days
same,clinical score at the end of treatment,"EAE mouse model; EAE mice, n=8, scale 0-5, subcutaneous alzet pump from EAE onset, score 2.0 at start, placebo 1.5, listed as RLN",0.5 and > 0.5
same,change in clinical score compared to PBS control,"EAE mouse model; EAE model animals, FIG. 1a",improvement in clinical score
same,change of spinal cord CCR5 expression vs PBS/placebo,"CCR5; EAE mice, in words",decreased; also recorded: significant reductions
same,spinal cord expression of CCR5,"CCR5; normalized to β-actin, EAE mice n=8, further studies (FIG. 2b), not significant vs placebo 0.0046",0.0035 relative units
same,GFAP staining of spinal cord / gliosis,GFAP,complete lack of gliosis
same,GFAP staining of spinal cord / gliosis,GFAP; listed as RLN,negative for GFAP; also recorded: did not stain positively for GFAP
same,change of spinal cord IL-17 expression vs placebo,IL-17,significantly decreased
same,change of spinal cord IL-17 expression vs placebo,IL-17; listed as RLX,decreased
same,spinal cord expression of IL-17,"IL-17; normalized to β-actin, EAE mice n=8, further studies (FIG. 4), p<0.05 vs placebo 0.00026",0.000078 relative units
same,change of spinal cord IL-10 expression,IL-10,decreased
same,change of spinal cord CCR7 expression vs PBS/placebo,"CCR7; EAE mice, in words",decreased; also recorded: significant reductions
same,spinal cord expression of CCR7,"CCR7; normalized to β-actin, EAE mice n=8, further studies (FIG. 2b), p<0.05 vs placebo 0.014",0.003 relative units
same,change of spinal cord CCR2 expression vs PBS/placebo,"CCR2; EAE mice, in words",decreased; also recorded: significant reductions
same,spinal cord expression of CCR2,"CCR2; normalized to β-actin, EAE mice n=8, further studies (FIG. 2b), p<0.05 vs placebo",0.044 relative units
same,myelin in spinal cord sections,myelin,decreases myelination and increases remyelination
same,myelin in spinal cord sections,myelin; listed as RLN,normal appearing myelin
same,change of spinal cord MIR2 expression,MIR2,increased
same,change of spinal cord MIR2 expression,MIR2; listed as RLX,increased the expression of the MIR2
same,macrophage infiltration of the spinal cord (CD68),CD68,greater infiltration of macrophages in the untreated samples than in those treated with RLN; also recorded: decreased macrophage infiltration
same,severe side effects,[2],no severe side effects
same,lesion load and size in the spinal cord,spinal cord lesions,reduced lesion load and size
